Active and inactive are the calls of the source.
Columns and labels:
[1] = target: T1, Probable nicotinate-nucleotide adenylyltransferase (Staphylococcus aureus (strain N315), UniProt P65502); type: functional, Staphylococcus aureus subsp. aureus N315;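 on IC50 Mean: confirmatory dose-response retesting of NadD inhibitor hits first found in an ultra-high-throughput screen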
[2] = target: T1, Probable nicotinate-nucleotide adenylyltransferase; type: functional, Staphylococcus aureus subsp. aureus N315; conditions: read-out: IC50_Mean
[3] = target: T2, Heat shock factor protein 1 (Mus musculus, UniProt P38532); experiment: inhibition of MG132-induced HSE-luciferase signal, confirmation, cell-based, NIH3T3, luminescence, dose retest (AID 2382); type: functional;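 further: NIH3T3 fibroblasts with HSF1-driven luciferase reporter stressed by proteasome inhibitor MG132; luminescence from HSF1-driven luciferase expression after 8 hours of MG132 stress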
T2 sequence (P38532 whole entry): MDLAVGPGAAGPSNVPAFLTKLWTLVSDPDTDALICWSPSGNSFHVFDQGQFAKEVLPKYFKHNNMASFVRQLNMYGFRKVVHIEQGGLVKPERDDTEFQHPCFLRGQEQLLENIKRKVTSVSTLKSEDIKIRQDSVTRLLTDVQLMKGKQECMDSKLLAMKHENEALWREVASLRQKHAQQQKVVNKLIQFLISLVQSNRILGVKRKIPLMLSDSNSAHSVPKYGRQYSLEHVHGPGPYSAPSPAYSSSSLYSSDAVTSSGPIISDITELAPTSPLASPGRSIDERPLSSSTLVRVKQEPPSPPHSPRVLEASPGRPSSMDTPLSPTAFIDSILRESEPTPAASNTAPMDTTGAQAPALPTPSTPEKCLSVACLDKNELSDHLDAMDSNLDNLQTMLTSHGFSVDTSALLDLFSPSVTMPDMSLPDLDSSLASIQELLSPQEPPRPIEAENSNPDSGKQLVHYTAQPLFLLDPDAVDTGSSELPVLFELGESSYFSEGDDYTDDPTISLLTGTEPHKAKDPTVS

[4] = target: T3, Corticotropin-releasing factor receptor 2/Corticotropin-releasing factor-binding protein (Homo sapiens, UniProt P24387+Q13324); experiment: Dose Response confirmation of uHTS hits for small molecule antagonists of the CRF-binding protein and CRF-R2 receptor complex.; type: functional; conditions: read-out: IC50_Mean
T3 sequence (Q13324 whole entry): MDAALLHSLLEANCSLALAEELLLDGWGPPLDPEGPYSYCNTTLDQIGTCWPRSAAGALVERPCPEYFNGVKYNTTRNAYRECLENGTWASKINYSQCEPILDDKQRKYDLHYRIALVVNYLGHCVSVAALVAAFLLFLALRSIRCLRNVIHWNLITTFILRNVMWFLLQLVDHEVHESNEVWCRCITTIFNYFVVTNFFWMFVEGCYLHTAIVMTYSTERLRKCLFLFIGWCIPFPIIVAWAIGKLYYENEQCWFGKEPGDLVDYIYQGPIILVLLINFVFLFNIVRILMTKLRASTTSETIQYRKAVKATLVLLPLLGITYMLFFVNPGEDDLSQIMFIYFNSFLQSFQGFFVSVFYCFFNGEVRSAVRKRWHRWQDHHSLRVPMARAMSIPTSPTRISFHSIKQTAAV
T3 sequence (P24387 whole entry): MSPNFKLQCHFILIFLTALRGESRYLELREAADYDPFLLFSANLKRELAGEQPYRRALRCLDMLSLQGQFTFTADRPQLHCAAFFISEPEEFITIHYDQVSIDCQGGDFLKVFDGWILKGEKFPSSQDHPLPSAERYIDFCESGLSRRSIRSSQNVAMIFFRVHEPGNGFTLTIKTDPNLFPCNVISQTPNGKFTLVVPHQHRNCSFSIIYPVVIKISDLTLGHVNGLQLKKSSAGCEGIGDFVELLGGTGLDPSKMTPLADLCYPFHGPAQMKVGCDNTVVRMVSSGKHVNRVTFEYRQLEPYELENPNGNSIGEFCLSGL

[5] = target: T3, Corticotropin-releasing factor receptor 2/Corticotropin-releasing factor-binding protein; experiment: activators of CRF receptor 2 with binding protein – uHTS hits, confirmation (AID 602473); type: functional; conditions: read-out: EC50_Mean
[6] = target: T4, Low molecular weight phosphotyrosine protein phosphatase (Homo sapiens, UniProt P24666); type: functional; conditions: read-out: IC50_Mean
T4 sequence (P24666 whole entry): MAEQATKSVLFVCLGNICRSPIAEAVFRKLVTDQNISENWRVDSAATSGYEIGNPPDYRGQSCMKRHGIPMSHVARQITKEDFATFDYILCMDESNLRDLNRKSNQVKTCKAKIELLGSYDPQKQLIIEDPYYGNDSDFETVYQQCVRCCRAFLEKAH

[7] = target: T4, Low molecular weight phosphotyrosine protein phosphatase; type: functional; conditions: read-out: IC50_Mean; remark: listed apart in the source
cells [8] = type: functional, cell-based
[9] = target: T5, Trace amine-associated receptor 1 (Homo sapiens, UniProt Q96RJ0); experiment: Fluorescence-based cell-based high throughput dose response assay to identify agonists of the human trace amine associated receptor 1 (TAAR1).; type: functional
T5 sequence (Q96RJ0 whole entry): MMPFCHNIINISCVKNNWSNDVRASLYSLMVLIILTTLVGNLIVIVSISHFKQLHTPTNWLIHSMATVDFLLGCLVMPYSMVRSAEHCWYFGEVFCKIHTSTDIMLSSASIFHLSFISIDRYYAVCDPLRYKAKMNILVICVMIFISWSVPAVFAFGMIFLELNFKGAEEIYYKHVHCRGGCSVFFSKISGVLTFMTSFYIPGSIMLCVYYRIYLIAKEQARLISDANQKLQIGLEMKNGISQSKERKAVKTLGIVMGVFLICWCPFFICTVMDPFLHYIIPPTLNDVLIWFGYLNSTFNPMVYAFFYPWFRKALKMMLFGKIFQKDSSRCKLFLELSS

[10] = target: T5, Trace amine-associated receptor 1; experiment: Counterscreen for agonists of the human trace amine associated receptor 1 (hTAAR1): Fluorescence-based cell-based high throughput dose response assay to identify hTAAR1 agonist that also desensitize TAAR1 receptor response.; type: functional
cells [11] = type: functional, cell-based; remark: listed apart in the source
[12] = Luminescence Cell-Based Dose Retest to Confirm Inhibitors of Cancer Stem Cells. [Related pubchem assays (depositor defined):AID2717, AID2721]; type: functional; conditions: Homo sapiens
Caspase-3 = target: T6, Caspase-3 (Homo sapiens, UniProt P42574); type: functional;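 further: Dose-response selectivity test against caspase-3 for candidate inhibitors of sentrin-specific proteases (SENPs)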
T6 sequence (P42574 whole entry): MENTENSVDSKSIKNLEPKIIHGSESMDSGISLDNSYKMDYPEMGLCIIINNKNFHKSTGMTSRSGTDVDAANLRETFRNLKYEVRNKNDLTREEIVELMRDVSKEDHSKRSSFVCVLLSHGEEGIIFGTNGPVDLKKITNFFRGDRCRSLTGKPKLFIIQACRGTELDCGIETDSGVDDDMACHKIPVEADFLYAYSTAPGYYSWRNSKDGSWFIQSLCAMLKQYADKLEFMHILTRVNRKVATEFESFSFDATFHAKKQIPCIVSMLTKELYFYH

[13] = target: T7, Sentrin-specific protease 7 (Homo sapiens, UniProt Q9BQF6); type: functional;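 further: Luminescence-based dose-response confirmation of ultra-high-throughput screening hits, measuring inhibition of SENP7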
T7 sequence (Q9BQF6 whole entry): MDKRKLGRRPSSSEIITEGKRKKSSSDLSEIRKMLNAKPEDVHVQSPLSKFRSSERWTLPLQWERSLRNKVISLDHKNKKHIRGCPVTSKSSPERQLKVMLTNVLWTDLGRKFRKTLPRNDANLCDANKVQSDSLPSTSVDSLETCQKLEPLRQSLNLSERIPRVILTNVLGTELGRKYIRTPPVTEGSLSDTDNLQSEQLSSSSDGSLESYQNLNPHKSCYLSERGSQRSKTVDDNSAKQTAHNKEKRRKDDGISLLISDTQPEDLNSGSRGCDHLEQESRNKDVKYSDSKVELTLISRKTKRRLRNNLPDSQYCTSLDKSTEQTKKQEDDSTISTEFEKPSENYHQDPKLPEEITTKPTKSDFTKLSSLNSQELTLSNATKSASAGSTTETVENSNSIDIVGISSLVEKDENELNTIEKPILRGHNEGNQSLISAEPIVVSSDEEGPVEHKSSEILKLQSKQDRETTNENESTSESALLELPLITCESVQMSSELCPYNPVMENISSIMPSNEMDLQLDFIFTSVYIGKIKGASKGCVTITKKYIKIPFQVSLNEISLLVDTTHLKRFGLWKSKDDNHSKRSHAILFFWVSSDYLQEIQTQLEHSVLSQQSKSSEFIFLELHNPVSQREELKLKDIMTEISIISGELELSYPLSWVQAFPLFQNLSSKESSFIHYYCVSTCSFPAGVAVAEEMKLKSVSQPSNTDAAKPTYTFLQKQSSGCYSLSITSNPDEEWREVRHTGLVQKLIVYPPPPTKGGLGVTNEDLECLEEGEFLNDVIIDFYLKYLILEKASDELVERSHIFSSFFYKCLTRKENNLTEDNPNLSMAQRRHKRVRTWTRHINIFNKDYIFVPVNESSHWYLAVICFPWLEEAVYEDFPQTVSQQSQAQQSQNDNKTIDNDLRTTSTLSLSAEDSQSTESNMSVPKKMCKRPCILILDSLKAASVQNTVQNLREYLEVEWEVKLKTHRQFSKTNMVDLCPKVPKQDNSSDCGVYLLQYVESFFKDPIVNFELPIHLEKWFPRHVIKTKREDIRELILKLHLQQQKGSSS

[14] = target: T8, Sentrin-specific protease 6 (Homo sapiens, UniProt Q9GZR1); type: functional;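 further: Luminescence-based dose-response confirmatory assay of SENP6 inhibition, following up an ultra-high-throughput screen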
T8 sequence (Q9GZR1 whole entry): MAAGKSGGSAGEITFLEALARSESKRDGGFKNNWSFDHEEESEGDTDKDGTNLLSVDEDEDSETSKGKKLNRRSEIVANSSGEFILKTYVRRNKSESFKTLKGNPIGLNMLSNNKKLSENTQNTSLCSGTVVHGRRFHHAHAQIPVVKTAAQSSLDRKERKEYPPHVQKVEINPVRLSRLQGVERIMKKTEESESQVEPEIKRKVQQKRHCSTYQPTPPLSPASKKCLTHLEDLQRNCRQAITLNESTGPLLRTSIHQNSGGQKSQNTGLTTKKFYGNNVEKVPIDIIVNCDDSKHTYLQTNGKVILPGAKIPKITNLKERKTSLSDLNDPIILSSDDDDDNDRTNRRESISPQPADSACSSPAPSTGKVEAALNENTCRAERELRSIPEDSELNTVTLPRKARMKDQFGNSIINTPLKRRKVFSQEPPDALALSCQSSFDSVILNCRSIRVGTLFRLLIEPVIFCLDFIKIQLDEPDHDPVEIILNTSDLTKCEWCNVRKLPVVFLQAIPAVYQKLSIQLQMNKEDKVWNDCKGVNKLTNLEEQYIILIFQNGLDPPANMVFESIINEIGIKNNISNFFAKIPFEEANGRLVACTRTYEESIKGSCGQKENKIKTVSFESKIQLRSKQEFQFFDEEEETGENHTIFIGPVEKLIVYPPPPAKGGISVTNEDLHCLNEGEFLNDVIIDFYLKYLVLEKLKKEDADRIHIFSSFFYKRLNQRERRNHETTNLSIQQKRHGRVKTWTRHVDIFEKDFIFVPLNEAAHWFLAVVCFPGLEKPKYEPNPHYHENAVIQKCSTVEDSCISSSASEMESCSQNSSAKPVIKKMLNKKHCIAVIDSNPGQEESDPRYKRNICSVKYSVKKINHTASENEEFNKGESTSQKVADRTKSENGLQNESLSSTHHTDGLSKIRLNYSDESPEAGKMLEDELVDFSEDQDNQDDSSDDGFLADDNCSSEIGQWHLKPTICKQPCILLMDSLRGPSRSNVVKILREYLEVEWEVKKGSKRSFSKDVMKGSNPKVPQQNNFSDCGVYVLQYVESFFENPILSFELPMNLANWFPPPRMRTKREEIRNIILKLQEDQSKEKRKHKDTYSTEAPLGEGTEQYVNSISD

[15] = target: T9, Sentrin-specific protease 8 (Homo sapiens, UniProt Q96LD8); type: functional;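 further: luminescence read-out of SENP8 inhibition, dose-response confirmation following an ultra-high-throughput screen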
T9 sequence (Q96LD8 whole entry): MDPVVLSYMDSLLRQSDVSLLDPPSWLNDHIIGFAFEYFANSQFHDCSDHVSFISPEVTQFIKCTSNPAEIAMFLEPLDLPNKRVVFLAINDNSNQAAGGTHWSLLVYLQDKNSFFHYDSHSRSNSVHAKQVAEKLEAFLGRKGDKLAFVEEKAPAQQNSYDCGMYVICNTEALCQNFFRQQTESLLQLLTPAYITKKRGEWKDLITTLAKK

Vero = Vero cell cytotoxicity, cytotoxicity control for flavivirus capping enzyme inhibitors (AID 588742); type: functional; conditions: Chlorocebus sabaeus
Genome polyprotein = Genome polyprotein (dengue virus type 2, UniProt P29990); experiment: Dengue-2 NS5 methyltransferase inhibitors, primary screen, biochemical, confirmation dose response (AID 588689); type: functional
Chain of Genome polyprotein (P29990 2492-3391 limits assumed): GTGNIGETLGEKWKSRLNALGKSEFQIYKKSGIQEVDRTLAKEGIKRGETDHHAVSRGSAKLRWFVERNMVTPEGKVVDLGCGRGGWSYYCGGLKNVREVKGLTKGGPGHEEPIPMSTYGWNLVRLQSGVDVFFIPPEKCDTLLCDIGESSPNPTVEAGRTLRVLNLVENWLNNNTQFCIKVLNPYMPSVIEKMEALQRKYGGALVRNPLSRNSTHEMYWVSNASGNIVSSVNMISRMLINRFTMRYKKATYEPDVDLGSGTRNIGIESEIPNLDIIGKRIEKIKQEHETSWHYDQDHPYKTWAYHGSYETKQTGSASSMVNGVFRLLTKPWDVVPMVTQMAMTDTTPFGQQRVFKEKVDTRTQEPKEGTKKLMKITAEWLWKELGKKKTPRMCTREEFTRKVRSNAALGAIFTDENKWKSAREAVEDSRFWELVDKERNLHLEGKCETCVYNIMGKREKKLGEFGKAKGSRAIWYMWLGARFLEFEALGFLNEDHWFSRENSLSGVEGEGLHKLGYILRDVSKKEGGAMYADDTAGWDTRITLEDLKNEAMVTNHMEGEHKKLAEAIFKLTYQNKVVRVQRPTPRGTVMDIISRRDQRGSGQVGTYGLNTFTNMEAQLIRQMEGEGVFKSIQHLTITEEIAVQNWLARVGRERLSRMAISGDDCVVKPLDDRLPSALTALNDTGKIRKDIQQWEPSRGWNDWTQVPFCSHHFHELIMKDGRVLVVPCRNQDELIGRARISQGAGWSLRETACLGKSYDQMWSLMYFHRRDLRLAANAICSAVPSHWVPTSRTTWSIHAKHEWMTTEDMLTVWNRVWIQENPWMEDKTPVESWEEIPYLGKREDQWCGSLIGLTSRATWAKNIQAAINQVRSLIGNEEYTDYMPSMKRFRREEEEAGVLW

[16] = target: T10, Hepatocyte nuclear factor 4-alpha (Homo sapiens, UniProt P41235); type: functional, cell-based;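 further: biochemical luminescence-based dose-response counterscreen measuring inhibition of HNF4 dimerization, run alongside a screen for blockers of ABHD5–perilipin-5 interaction; split luciferase complementation of HNF4 fusion proteins in cell lysate measuring dimerization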
T10 sequence (P41235 whole entry): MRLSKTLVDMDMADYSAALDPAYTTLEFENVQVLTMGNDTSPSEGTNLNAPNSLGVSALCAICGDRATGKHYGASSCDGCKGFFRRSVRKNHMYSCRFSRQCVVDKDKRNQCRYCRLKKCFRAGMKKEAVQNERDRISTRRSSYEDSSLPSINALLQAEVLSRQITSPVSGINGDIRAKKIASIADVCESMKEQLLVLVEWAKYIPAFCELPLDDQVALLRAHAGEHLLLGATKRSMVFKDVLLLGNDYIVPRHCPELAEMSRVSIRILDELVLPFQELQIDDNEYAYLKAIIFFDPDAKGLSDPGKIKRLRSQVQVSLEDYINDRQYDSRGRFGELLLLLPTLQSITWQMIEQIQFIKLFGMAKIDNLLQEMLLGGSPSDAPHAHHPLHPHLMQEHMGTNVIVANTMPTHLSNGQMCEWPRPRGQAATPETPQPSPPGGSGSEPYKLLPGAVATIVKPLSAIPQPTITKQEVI
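Wherever AC50 is given: cells exposed to compound for roughly 70 hours or longer before luminescence read.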

T1 sequence (P65502 whole entry): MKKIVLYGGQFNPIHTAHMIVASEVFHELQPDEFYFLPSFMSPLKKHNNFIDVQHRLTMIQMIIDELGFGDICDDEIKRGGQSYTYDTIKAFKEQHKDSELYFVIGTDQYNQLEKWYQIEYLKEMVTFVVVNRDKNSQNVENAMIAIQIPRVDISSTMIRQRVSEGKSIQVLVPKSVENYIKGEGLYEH

Structure (SMILES): Cc1ccc(-c2cc(-c3ccccc3Cl)c(C#N)c(N)n2)o1
- IC50 [1]: 5.05 µM (active)
- IC50 [2]: 7.76 µM (active)

Structure (SMILES): Cc1[nH]c(=O)c(C#N)cc1-c1csc(-c2ccccc2)n1
- EC50 [3]: > 195 µM (not active)
- IC50 [4]: > 47.1 µM (inactive)
- EC50 [5]: > 53 µM (inactive)
- IC50 [6]: 27 µM (inactive)
- IC50 [7]: 67.8 µM (inactive)

Structure (SMILES): O=C(N[C@@H](Cc1cccnc1)C(=O)N1CCC[C@H]1C(=O)NCCc1ccccc1Cl)C1CC1
- IC50 (cells [8]): > 29.9 µM (inactive)
- EC50 [9]: > 9.98 µM (active)
- IC50 [10]: 13.6 µM (inactive)
- EC50 (cells [11]): > 29.9 µM (inactive)

Structure (SMILES): COc1ccc(NC(=O)c2cc3ccccc3cc2O)cc1
- AC50 [12]: 6.04 µM (active)
- IC50 (Caspase-3): 20.7 µM (active)
- IC50 [13]: 5.51 µM (active)
- IC50 [14]: 72.6 µM (active)
- IC50 [15]: > 100 µM (inactive)
- CC50 (Vero): 34.6 µM (active)
- IC50 (Genome polyprotein): > 100 µM (active)
- IC50 [16]: 10 µM (inactive)
